Experiments:
[1] = Aldehyde and ketone reaction products by HPLC with DNPH derivatization in a soap formulation; conditions: treated vs untreated soap, peak area
Experimental: The extent of rancidity in the soap formulation tested was determined by measuring the content of aldehyde and ketone reaction products of the soap oils present. DNPH derivatives of aldehydes/ketone products in soap and treated soap were synthesized as follows:
0.1000 g of a soap formulation, either treated or untreated with DiMeC10A-PhPA were separately measured and diluted to 12 mL by the addition of propan-2-ol. 1 mL of this prepared diluted mixture was added to 1 mL of diluted DNPH solution which was prepared separately by mixing DNPH (3 g/L) and 3% HCL and diluted into 12 mL by the addition of propan-2-ol. The reaction vial was stirred and kept at 40C for 1 hr to accelerate derivatization reaction. Then it was cooled to room temperature and neutralized with 20% triethylamine and centrifuged at 5000 rpm for 5 min. The sample was then injected into the HPLC column.

[2] = POV by titration in formulated ranch salad dressing
Description: Blank Samples: In all of the experiments below, an Untreated Oil (Blank) sample was maintained. The Blank was always packaged, stored, handled, and sampled in exactly the same manner as the Treated Sample, excepting the addition of the 2-oxoacid salt. In this way, the effect of the atmospheric oxygen in the headspace volume would be similar. For example, the ratio of the headspace volume to the volume of oil, and the area of contact between the headspace and the oil surface, would be the same for Treated and Untreated samples.
Into 30 mL glass vial was placed 15 g of a commercial salad dressing that had been stored in the lab at room temperature for an unknown but extended period after opening. To this vial, 0.4002 g of PhPA-DiMeC 10A was added and mixed well. The mixture was allowed to stand on the bench top under ambient laboratory light at room temperature. Periodically, measurements were recorded of the POV by titration, rancid-smelling aldehydes by HPLC with DNPH derivatization (see method above), and sensory evaluation.

[3] = POV reduction in model citrus perfume (mixed citrus oil in 90/10 v/v ethanol/water); conditions: for % POV Reduction: model citrus perfume, vs untreated sample

CCCCCCCCCCN(C)C.O=C(O)C(=O)Cc1ccccc1 [DiMeC10A-PhPA]
2-nonenal % reduction [1]: 52.4% | decanal % reduction [1]: 55.8% | heptanal % reduction [1]: 60% | hexanal % reduction [1]: 66.7% | nonanal % reduction [1]: 79% | octanal % reduction [1]: 72.3% | retention time 22.9 % reduction [1]: 51.3% | retention time 27.7 % reduction [1]: 72.7% | retention time 29.8 % reduction [1]: 70.5% | retention time 30.6 % reduction [1]: 65.5% | retention time 31.05 % reduction [1]: 68.1% | retention time […] reduction [1]: 63.3% | % of reduction in POV ([2]; 50 mins since addition): 0% | % of reduction in POV ([2]; 6 hrs since addition): 53% | % of reduction in POV ([2]; 26 hrs since addition): 62%

CN(C)CCO.CN(C)CCO.O=C(O)CCC(=O)C(=O)O [AKG DiDeanol]
POV Treated Perfume ([3]; […] (24 hours), 1.0% w/v in model perfume): 0.0 mmol/L

CCC(CC)(C(=O)[O-])C(=O)C(=O)O.[Na+] [Diethyloxaloacetate, Sodium Salt]
% POV Reduction ([3]; 165 Minutes after addition of treating compound): 36.9% | % POV Reduction ([3]; 24 hours after addition of treating compound): 92.7%
